# In ChEMBL document CHEMBL3885861, “Open TG-GATES”:
# Species: Rattus norvegicus
# Experiment: Open TG-GATES - Regimen: Single
# Type: toxicity, organism-based, Sprague-Dawley
# Set-up: regimen Single, gender Male, age 6 weeks
# Details: in vivo, po, 0 mg/kg, route gavage, dose level Control; for APTT / Bas / Eos / Fbg / Hb / Ht / Lym / MCH / MCHC / MCV / Mono / Neu / PT / Plat / RBC / Ret / WBC: tissue Blood; for KIDNEY_L / KIDNEY_R / KIDNEY_TOTAL: tissue Kidney; for LIVER: tissue Liver; for A/G / ALP / ALT / AST / BUN / CRE / Ca / Cl / DBIL / GLC / IP / K / LDH / Na / PL / RALB / TBIL / TC / TG / TP / gamma-GTP: tissue Plasma
smiles,measurement,setting,value
Nc1ccc(Cc2ccc(N)cc2)cc1,TERMINAL_BW,3 h,209.4 g
same,APTT,3 h,13.9 s
same,Bas,3 h,0%
same,Eos,3 h,0.6%
same,Fbg,3 h,263.2 mg/dL
same,Hb,3 h,12.7 g/dL
same,Ht,3 h,37.3%
same,Lym,3 h,73.6%
same,MCH,3 h,21.8 pg
same,MCHC,3 h,34.1%
same,MCV,3 h,63.9 fL
same,Mono,3 h,3%
same,Neu,3 h,21.2%
same,PT,3 h,11.7 s
same,Plat,3 h,145.5 x10_4/uL
same,RBC,3 h,584.2 x10_4/ul
same,Ret,3 h,9.5%
same,WBC,3 h,100 x10_2/uL
same,KIDNEY_L,3 h,0.9 g
same,KIDNEY_R,3 h,0.9 g
same,KIDNEY_TOTAL,3 h,1.8 g
same,LIVER,3 h,9.5 g
same,A/G,3 h,0.8
same,ALP,3 h,1787.8 IU/L
same,ALT,3 h,46.8 IU/L
same,AST,3 h,90.8 IU/L
same,BUN,3 h,9.8 mg/dL
same,CRE,3 h,0.2 mg/dL
same,Ca,3 h,11 mg/dL
same,Cl,3 h,106.8 meq/L
same,DBIL,3 h,0.024 mg/dL
same,GLC,3 h,158.2 mg/dL
same,IP,3 h,9.1 mg/dL
same,K,3 h,3.7 meq/L
same,LDH,3 h,72.6 IU/L
same,Na,3 h,141.2 meq/L
same,PL,3 h,149.8 mg/dL
same,RALB,3 h,2.5 g/dL
same,TBIL,3 h,0.056 mg/dL
same,TC,3 h,76.8 mg/dL
same,TG,3 h,128.2 mg/dL
same,TP,3 h,5.6 g/dL
same,gamma-GTP,3 h,1 IU/L
same,TERMINAL_BW,6 h,206.4 g
same,APTT,6 h,14.9 s
same,Bas,6 h,0%
same,Eos,6 h,1%
same,Fbg,6 h,279.2 mg/dL
same,Hb,6 h,13 g/dL
same,Ht,6 h,38%
same,Lym,6 h,74.2%
same,MCH,6 h,21.4 pg
same,MCHC,6 h,34.1%
same,MCV,6 h,62.8 fL
same,Mono,6 h,2.6%
same,Neu,6 h,21.6%
same,PT,6 h,11.6 s
same,Plat,6 h,134.9 x10_4/uL
same,RBC,6 h,606 x10_4/ul
same,Ret,6 h,8%
same,WBC,6 h,104.9 x10_2/uL
same,KIDNEY_L,6 h,0.9 g
same,KIDNEY_R,6 h,0.9 g
same,KIDNEY_TOTAL,6 h,1.8 g
same,LIVER,6 h,8.5 g
same,A/G,6 h,0.8
same,ALP,6 h,1552.8 IU/L
same,ALT,6 h,35.2 IU/L
same,AST,6 h,75 IU/L
same,BUN,6 h,9 mg/dL
same,CRE,6 h,0.2 mg/dL
same,Ca,6 h,10.8 mg/dL
same,Cl,6 h,107.4 meq/L
same,DBIL,6 h,0.024 mg/dL
same,GLC,6 h,165 mg/dL
same,IP,6 h,10 mg/dL
same,K,6 h,4.2 meq/L
same,LDH,6 h,67 IU/L
same,Na,6 h,141.8 meq/L
same,PL,6 h,131.6 mg/dL
same,RALB,6 h,2.5 g/dL
same,TBIL,6 h,0.062 mg/dL
same,TC,6 h,71.2 mg/dL
same,TG,6 h,59.4 mg/dL
same,TP,6 h,5.7 g/dL
same,gamma-GTP,6 h,1.4 IU/L
same,TERMINAL_BW,9 h,204.2 g
same,APTT,9 h,14.5 s
same,Bas,9 h,0%
same,Eos,9 h,0.8%
same,Fbg,9 h,277 mg/dL
same,Hb,9 h,12.7 g/dL
same,Ht,9 h,37.3%
same,Lym,9 h,73.4%
same,MCH,9 h,21.1 pg
same,MCHC,9 h,34.2%
same,MCV,9 h,61.8 fL
same,Mono,9 h,1.8%
same,Neu,9 h,23.6%
same,PT,9 h,11.7 s
same,Plat,9 h,137.5 x10_4/uL
same,RBC,9 h,603.8 x10_4/ul
same,Ret,9 h,8%
same,WBC,9 h,65.4 x10_2/uL
same,KIDNEY_L,9 h,0.9 g
same,KIDNEY_R,9 h,0.9 g
same,KIDNEY_TOTAL,9 h,1.7 g
same,LIVER,9 h,7.8 g
same,A/G,9 h,0.8
same,ALP,9 h,1332.6 IU/L
same,ALT,9 h,27.4 IU/L
same,AST,9 h,64.4 IU/L
same,BUN,9 h,8.8 mg/dL
same,CRE,9 h,0.2 mg/dL
same,Ca,9 h,10.5 mg/dL
same,Cl,9 h,106.4 meq/L
same,DBIL,9 h,0.018 mg/dL
same,GLC,9 h,174.2 mg/dL
same,IP,9 h,10.5 mg/dL
same,K,9 h,4 meq/L
same,LDH,9 h,58.2 IU/L
same,Na,9 h,143 meq/L
same,PL,9 h,129.6 mg/dL
same,RALB,9 h,2.5 g/dL
same,TBIL,9 h,0.064 mg/dL
same,TC,9 h,77.8 mg/dL
same,TG,9 h,42.4 mg/dL
same,TP,9 h,5.6 g/dL
same,gamma-GTP,9 h,1 IU/L
same,TERMINAL_BW,24 h,219.7 g
same,APTT,24 h,12.6 s
same,Bas,24 h,0%
same,Eos,24 h,1%
same,Fbg,24 h,258.8 mg/dL
same,Hb,24 h,13.1 g/dL
same,Ht,24 h,37.9%
same,Lym,24 h,73.2%
same,MCH,24 h,21.2 pg
same,MCHC,24 h,34.5%
same,MCV,24 h,61.6 fL
same,Mono,24 h,1.8%
same,Neu,24 h,23.2%
same,PT,24 h,11.4 s
same,Plat,24 h,146.9 x10_4/uL
same,RBC,24 h,616.8 x10_4/ul
same,Ret,24 h,6.8%
same,WBC,24 h,88.9 x10_2/uL
same,KIDNEY_L,24 h,0.9 g
same,KIDNEY_R,24 h,0.9 g
same,KIDNEY_TOTAL,24 h,1.9 g
same,LIVER,24 h,9.5 g
same,A/G,24 h,0.9
same,ALP,24 h,1942.2 IU/L
same,ALT,24 h,38.6 IU/L
same,AST,24 h,74 IU/L
same,BUN,24 h,14.6 mg/dL
same,CRE,24 h,0.2 mg/dL
same,Ca,24 h,10.9 mg/dL
same,Cl,24 h,106.4 meq/L
same,DBIL,24 h,0.02 mg/dL
same,GLC,24 h,167 mg/dL
same,IP,24 h,7.7 mg/dL
same,K,24 h,3.9 meq/L
same,LDH,24 h,49.2 IU/L
same,Na,24 h,143.2 meq/L
same,PL,24 h,135.4 mg/dL
same,RALB,24 h,2.6 g/dL
same,TBIL,24 h,0.044 mg/dL
same,TC,24 h,72 mg/dL
same,TG,24 h,89.6 mg/dL
same,TP,24 h,5.5 g/dL
same,gamma-GTP,24 h,1 IU/L
